Measurements as given in patent publication US20250101026A1, “Functionalized Allopurinol Derivatives for Treatment of Alzheimer’s Disease” (BOARD OF REGENTS OF THE UNIVERSITY OF NEBRASKA, priority 2022, published 2025).
Where “and” joins values, the source holds several entries; their conditions need not be identical. Equal values may be shown once. Entries after “also recorded” stand apart in the source; their conditions may differ.

Key:
Aβ-ABAD PPI = molecular target: T1, Aβ-ABAD PPI (Homo sapiens, UniProt Q99714); assay: Estradiol ELISA assay: rescue of Aβ-induced reduction of estradiol levels in SH-SY5Y cells; format: cell-based
T1 construct: wildtype human SH-SY5Y cell lines, which are known to express ABAD; endogenous in cells; host or cells: SH-SY5Y
T1 sequence (Q99714 2-261 limits assumed): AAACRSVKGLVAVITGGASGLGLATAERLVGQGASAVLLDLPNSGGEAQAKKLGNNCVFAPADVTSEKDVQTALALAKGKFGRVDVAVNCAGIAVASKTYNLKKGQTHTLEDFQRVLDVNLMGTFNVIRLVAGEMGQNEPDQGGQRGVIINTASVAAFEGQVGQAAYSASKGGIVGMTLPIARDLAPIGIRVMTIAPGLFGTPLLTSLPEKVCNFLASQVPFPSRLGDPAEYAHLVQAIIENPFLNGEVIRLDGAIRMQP
Method: (§1) Cell Culture. The cell line SH-SY5Y was cultured in DMEM/F12 media supplemented with 10% fetal bovine serum, 1% penicillin-streptomycin and maintained as monolayer cultures in a humidified atmosphere containing 5% CO2 at 37° C.^42 All cell lines were authenticated via short tandem repeat analysis and tested for mycoplasma using the a commercial mycoplasma detection kit as per the manufacturer's instructions, showing no contamination. Where indicated, cells were also cultured in DMEM/low glucose media. All compounds were diluted to 20 mM solution in DMSO and were serially diluted in cell culture media for cell treatments to a final concentration range of 0.01 to 100 μM, maintaining the final DMSO concentration at less than 1%. Positive control compound HupA was serially diluted in a similar fashion as the synthesized compounds.
(§2) Amyloid Preparation. The peptide Aβ1-42, referred to as “Aβ”, was obtained from a commercial source. The oligomers of Aβ were prepared using an established method,^43 Aβ peptide was resuspended in 0.5 mM NaOH at a concentration of […] and stored at −80° C. For use in cell cultures, the stock solution was incubated at 37° C. for 5-7 days. Before use, the peptide was diluted to 25 μM in DMEM/low glucose media.
Estradiol ELISA assay. SH-SY5Y cells were treated with compounds (24 hours), followed by Aβ (72 hours) in a similar fashion to that employed in the cell viability assays, the cell culture medium was collected, and cells were lysed using RIPA buffer and protease inhibitor cocktail, then proteins were quantified via BCA assay. An estradiol assay was performed. In brief, the plate was loaded with samples, along with the estradiol tracer and the specific antiserum to estradiol and incubated for one hour at room temperature. After five washing steps, Ellman's Reagent was added, and the plate developed for 60 minutes with gentle shaking at room temperature. The calculated estradiol concentration was normalized to the total protein content of the samples.
Statistical Analyses. The IC50 values of each compound were acquired from a single experiment with each inhibitor concentration run in triplicate and the statistical significance was calculated using the Student t test, or a one-way or two-way ANOVA. A P value of <0.05 was considered statistically significant. IC50 values were calculated.
To determine the effect of Aβ on estradiol production, and ABAD's role in this process, wildtype human SH-SY5Y cell lines, which are known to express ABAD, were incubated for 72 hours with Aβ.^20 Estradiol levels in the cell lysate were measured with a commercial ELISA-based estradiol assay. […] To determine if AG18051 treatment affects Aβ-induced reduction of estradiol levels, 0.1 or 1 μM AG18051 was preincubated in SH-SY5Y cells for 24 hours prior to Aβ exposure. […] AG18051 at 1 μM protected SH-SY5Y cells from Aβ-induced reduction of estradiol production to a greater significance than HupA. This confirms literature reports that AG18051 is neuroprotective and that it exerts this effect by ameliorating Aβ-induced reduction of estradiol production by ABAD.^20, 23
This assay methodology allows direct screening of compound activity in the presence of Aβ and provides direct evidence of the ability of compounds to rescue Aβ-induced reduction of estradiol production by ABAD. To measure the effect of AG18051 alone in SH-SY5Y cell lines, a 0.01-100 μM dose-response range was tested, and their effect on estradiol levels (FIG. 2B). […] To evaluate the effect of the increase of AG18051 dose in maintaining estradiol levels reduced by Aβ, AG18051 was tested in increasing concentrations in the presence of Aβ (FIG. 2B).

SH-SY5Y cells [1] = assay: Cell viability of SH-SY5Y cells with compound alone; format: cell-based, human; conditions: up to 100 μM
Method: as §1
Cell Viability Assays. The SH-SY5Y cells were plated at a density of 50,000 cells/well in 96-well plates and allowed to adapt overnight in a humidified atmosphere containing 5% CO2 at 37° C. The cells were pretreated (24 hours) with the test compound and exchanged to a serum-free DMEM/low glucose media, prior to incubation with 25 μM of Aβ. Cell viability was measured after 48 hours using commercial MTS assay or lactate dehydrogenase (LDH) cytotoxicity assay. […]

SH-SY5Y cells [2] = assay: Aβ-induced toxicity in SH-SY5Y cells, MTS assay; format: cell-based, human; conditions: 1 μM, pretreated 24 hrs, then 25 μM Aβ 48 hrs
Method: as §1, §2
Cell Viability Assays. The SH-SY5Y cells were plated at a density of 50,000 cells/well in 96-well plates and allowed to adapt overnight in a humidified atmosphere containing 5% CO2 at 37° C. The cells were pretreated (24 hours) with the test compound and exchanged to a serum-free DMEM/low glucose media, prior to incubation with 25 μM of Aβ. Cell viability was measured after 48 hours using commercial MTS assay or lactate dehydrogenase (LDH) cytotoxicity assay.
Employing human neuroblastoma SH-SY5Y ‘neuron-like’ cells, known to express ABAD,^20 experimental conditions are described herein that result in reproducible loss of 65% cell viability upon treatment with 25 μM Aβ after 48-hour incubation (FIG. 4A). Compound 1 (AG18051) and its analog 14b were screened for toxic effects in the SH-SY5Y cell lines.
HupA at 10 μM concentration provided 74% protection from Aβ-induced toxicity. […] Again, synthesized compound 14b at 1 μM, afforded greater protection than HupA at 10 μM concentration.

SH-SY5Y cells [3] = assay: Aβ-induced toxicity in SH-SY5Y cells, lactate dehydrogenase (LDH) release assay; format: cell-based, human; conditions: 1 μM, pretreated 24 hrs, then 25 μM Aβ 48 hrs
Method: as §1, §2
Cell Viability Assays. […] Cell viability was measured after 48 hours using commercial MTS assay or lactate dehydrogenase (LDH) cytotoxicity assay. […]

SH-SY5Y cells [4] = assay: Mitochondrial Stress Test in Aβ-treated SH-SY5Y cells (extracellular flux analyzer); format: cell-based, human
Method: Mitochondrial Stress Test. […] After 48 hours, media was replaced with assay medium consisting of XF Base Medium supplemented with 10 mM glucose, 10 mM pyruvic acid, and 1 mM L-glutamine. Subsequently, the analysis of mitochondrial oxygen consumption rate (OCR) was performed in a flux analyzer. The OCR values were obtained both during baseline (prior to addition of any Mito Stress Test substances), and after the addition of […], 2 μM FCCP and 0.5 μM rotenone+0.5 μM antimycin A, respectively. Prior to analysis, data were corrected by withdrawing non-mitochondrial respiration (measured after the injection of rotenone and antimycin A) from all measured OCR values. After the experiment, cells were lysed using RIPA buffer and protease inhibitor cocktail, then proteins were quantified via BCA assay. Results were normalized to protein concentration of each well to its OCR value.

[5] = cited from earlier work
ABAD = molecular target: T2, ABAD (Homo sapiens, UniProt Q99714); assay: Estradiol levels in SH-SY5Y cells treated with the substance alone; format: cell-based; set-up: To measure the effect of AG18051 alone in SH-SY5Y cell lines; endogenous in cells; host or cells: SH-SY5Y
T2 sequence (Q99714 1-261): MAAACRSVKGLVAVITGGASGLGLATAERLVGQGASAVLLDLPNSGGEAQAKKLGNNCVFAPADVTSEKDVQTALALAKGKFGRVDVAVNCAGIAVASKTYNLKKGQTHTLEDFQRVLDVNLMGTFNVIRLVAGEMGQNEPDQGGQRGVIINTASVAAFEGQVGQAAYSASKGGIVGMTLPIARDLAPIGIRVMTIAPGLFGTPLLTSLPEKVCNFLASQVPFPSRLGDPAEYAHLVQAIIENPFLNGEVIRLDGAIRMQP
Method: Estradiol ELISA assay. […] An estradiol assay was performed. In brief, the plate was loaded with samples, along with the estradiol tracer and the specific antiserum to estradiol and incubated for one hour at room temperature. After five washing steps, Ellman's Reagent was added, and the plate developed for 60 minutes with gentle shaking at room temperature. The calculated estradiol concentration was normalized to the total protein content of the samples.

O=C(C(c1ccccc1)n1cnc2[nH]ncc2c1=S)N1CCCCCC1 (stereo not shown) [Compound 1, 1-(azepan-1-yl)-2-phenyl-2-(4-thioxo-1,4-dihydro-5H-pyrazolo[3,4-d]pyrimidin-5-yl)ethan-1-one, reference compound]
IC50 (Aβ-ABAD PPI; compounds 24 hours then Aβ 72 hours, amelioration of Aβ-induced reduction of estradiol levels, read-out: IC50 (estradiol assay)): 1.22 µM and 1.2 µM | estradiol levels in the presence of Aβ (Aβ-ABAD PPI; preincubated 24 hours prior to Aβ exposure, compared to Aβ-only control, listed as AG18051): significantly maintained estradiol levels; also recorded: dose-dependent increase in estradiol levels | toxicity to reduce cell viability (SH-SY5Y cells [1]): no toxicity | protection of cell viability (MTS assay) (SH-SY5Y cells [2]): 79% | LDH release compared with Aβ treatment alone (SH-SY5Y cells [3]): significantly reducing LDH release | basal respiration: restored share of the cell respiration reduced by Aβ (SH-SY5Y cells [4]; 1 μM pretreatment 24 hrs, then 25 μM Aβ 48 hrs): 37% | proton leak, ATP production and maximal respiration: restoration of mitochondrial function lost by Aβ (SH-SY5Y cells [4]; 1 μM pretreatment, then 25 μM Aβ): trend to restore | solubility [5]: poor solubility | effect on estradiol levels, compound alone (ABAD; 0.01-100 μM dose-response range): no significant reduction in estradiol levels | decrease in estradiol levels compared to control (ABAD; compound alone at 100 μM): 20%
